The target in this assay is T1, ADP-glucose synthase (Ags; ags1 ags2) (Acetivibrio thermocellus, UniProt A3DK82).
T1 construct: gene glgC; both subunits co-expressed untagged from pTrc99a (pTK30) in E. coli BL21; cell extract
T1 sequence (A3DK82 1-426): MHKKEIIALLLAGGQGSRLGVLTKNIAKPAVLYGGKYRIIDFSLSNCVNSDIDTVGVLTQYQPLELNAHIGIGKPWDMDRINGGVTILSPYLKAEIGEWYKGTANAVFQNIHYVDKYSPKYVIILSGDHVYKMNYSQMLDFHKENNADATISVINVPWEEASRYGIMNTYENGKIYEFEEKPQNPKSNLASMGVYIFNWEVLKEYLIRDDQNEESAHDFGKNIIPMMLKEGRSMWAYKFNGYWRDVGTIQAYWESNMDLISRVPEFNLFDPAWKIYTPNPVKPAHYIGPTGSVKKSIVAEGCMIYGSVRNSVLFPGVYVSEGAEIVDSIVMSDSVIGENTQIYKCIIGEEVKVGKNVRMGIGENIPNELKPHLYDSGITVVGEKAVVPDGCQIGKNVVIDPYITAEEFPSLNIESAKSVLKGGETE
T1 sequence (A3DK83 1-373 partner): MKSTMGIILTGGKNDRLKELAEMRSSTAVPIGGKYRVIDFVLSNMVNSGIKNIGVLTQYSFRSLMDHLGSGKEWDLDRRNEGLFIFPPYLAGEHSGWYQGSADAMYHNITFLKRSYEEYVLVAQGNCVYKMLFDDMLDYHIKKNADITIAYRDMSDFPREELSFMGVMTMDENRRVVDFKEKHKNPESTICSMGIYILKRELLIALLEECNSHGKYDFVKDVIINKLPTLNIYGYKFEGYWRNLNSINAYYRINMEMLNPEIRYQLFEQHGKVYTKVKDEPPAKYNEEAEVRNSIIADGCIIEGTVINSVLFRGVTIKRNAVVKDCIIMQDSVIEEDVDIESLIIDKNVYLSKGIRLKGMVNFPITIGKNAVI
Briefly: coupled NADP+ assay, pyrophosphorolysis direction. It counts as biochemical. To be noted: 1 mM ADP-glucose, 1 mM PPi, 4 mM MgCl2, 2 mM fructose-1,6-bisphosphate, pH 7.5, 55°C.

We go through one compound from article PMC8863071, “Functional Analysis of H^+-Pumping Membrane-Bound Pyrophosphatase, ADP-Glucose Synthase, and Pyruvate Phosphate Dikinase as Pyrophosphate Sources in Clostridium thermocellum” (Applied and Environmental Microbiology, 2022).

For the compound `Nc1ncnc2c1ncn2[C@@H]1O[C@H](COP(=O)(O)OP(=O)(O)O[C@H]2O[C@H](CO)[C@@H](O)[C@H](O)[C@H]2O)[C@@H](O)[C@H]1O` [ADP-glucose], the “coupled NADP+ assay, pyrophosphorolysis direction” value is “the activity was found to be ADP-glucose dependent”.
